Literature values, collected in patent US20230381356A1 (priority 2021, published 2023).

Experiments:
Ebola Virus = details: saturated GITC solution ~3.5M alone
SARS-CoV-2 = details: GITC alone, even in high concentrations
Pixuna virus = details: GITC alone at or near saturation (~3.5M)
[1] = test system: Xenotropic murine leukemia virus
[2] = test system: Bovine Viral Diarrheal Virus
Virus = details: in <1 minute, final concentration of 1% (v/v)

Row | Compound | inactivation of Ebola Virus (Ebola Virus) | inactivation of SARS-CoV-2 (SARS-CoV-2) | inactivation of Pixuna virus (Pixuna virus) | inactivation of Xenotropic murine leukemia virus [1] | inactivation of Pseudorabies Virus (Pseudorabies Virus) | inactivation of HIV (HIV) | inactivation of Bovine Viral Diarrheal Virus [2] | log reduction (Virus) [log]
1 | N#CS.N=C(N)N [GITC, Guanidine isothiocyanate] | does not inactivate | 50-75% | did not effectively inactivate |  |  |  |  | 
2 | Triton X-100 |  |  |  | inactivate | inactivate | inactivate | inactivate | 4
